Source: article PMC3410894, “Structural and Biochemical Basis for Development of Influenza Virus Inhibitors Targeting the PA Endonuclease” (PLoS Pathogens, 2012)
Like-named read-outs stand apart in the source and are kept apart here.

Key:
[1] = target: PAN (Influenza A virus, UniProt Q5EP34); format: binding, H5N1 influenza virus A/Vietnam/1203/2004
[2] = target: PAN endonuclease (Influenza A virus, UniProt Q5EP34); format: biochemical, H5N1 influenza virus A/Vietnam/1203/2004
[3] = tested on: influenza virus; conditions: cited from earlier work
[4] = tested on: influenza virus; conditions: mouse, in vivo; cited from earlier work
[5] = tested on: H1N1 influenza A virus (A/PuertoRico/8/34); test: microbe, parasite or virus in culture; format: cell-based; conditions: H1N1, MDCK, 72 h, read-out: Antiviral Activity IC50
[6] = in vitro; conditions: dog
[7] = target: influenza A polymerase; conditions: read-out: Reported IC50; cited from earlier work
[8] = tested on: influenza A polymerase; format: biochemical, influenza A virus
[9] = tested on: H1N1 influenza A virus (A/PuertoRico/8/34); set-up: method as in PMID 22211528; conditions: plaque formation, MDCK cells, 72 h, measured previously; read-out: Antiviral Activity IC50; cited from earlier work
[10] = tested on: MDCK cells; conditions: cited from earlier work

2,4-dioxo-4-phenylbutanoic acid [Compound 2]
ITC binding stoichiometry N (compound per PAN) [1]: 1.86 | Inhibition of PAN endonuclease activity [2]: inhibited PAN enzymatic activity in a dose-dependent manner

O=C1Cc2ccccc2C(=O)N1O [Compound 1]
Inhibition of PAN endonuclease activity [2]: inhibited PAN enzymatic activity in a dose-dependent manner

O=C(O)/C(O)=C/C(=O)C1(Cc2ccc(Cl)cc2)CCN(Cc2ccccc2)CC1 [Compound 3, L-742,001]
IC50 ([3]; read-out: IC50, inhibition of viral replication in cell culture): 0.35 µM | Inhibition of PAN endonuclease activity [2]: inhibited PAN enzymatic activity in a dose-dependent manner | Inhibition of viral replication in mice (qualitative) [4]: dose-dependent inhibition of viral replication

Cn1cnc(-c2nc(C(=O)O)c(O)c(=O)[nH]2)c1 [Compound 4, 5-hydroxy-2-(1-methyl-1H-imidazol-4-yl)-6-oxo-1,6-dihydropyrimidine-4-carboxylic acid]
IC50 [5]: > 50 µM | Inhibition of PAN endonuclease activity [2]: inhibit PAN activity | CC50 at 72 h [6]: > 60 µM

CC(=O)Nc1cccc(-c2nc(C(=O)O)c(O)c(=O)[nH]2)c1 [Compound 5, 2-(3-acetamidophenyl)-5-hydroxy-6-oxo-1,6-dihydropyrimidine-4-carboxylic acid]
IC50 [5]: > 50 µM | Inhibition of PAN endonuclease activity [2]: inhibit PAN activity | CC50 at 72 h [6]: 48.7 ± 1.2 µM

O=C(O)c1cccc(O)c1O [Compound 6, dihydroxybenzoic acid]
Inhibition of PAN endonuclease activity [2]: little ability to inhibit PAN endonuclease activity

CC(C)/C=C1\N=C(CC(C)C)C(=O)N(O)C1=O [Compound 7, Flutimide]
IC50 [7]: 5.5 µM

CC(C)CC1=N/C(=C\c2ccc(F)cc2)C(=O)N(O)C1=O [Compound 8]
IC50 [7]: 0.9 µM | Fold increase in potency compared with Flutimide [8]: 6 fold

CC(C)CC1=N/C(=C\c2ccc(F)cc2)C(=O)NC1=O [Compound 9]
IC50 [7]: > 365 µM

O=C1Cc2ccccc2CC(=O)N1O [Compound 11]
IC50 [7]: > 1000 µM

CC(C)C(=O)C=C(O)C(=O)O [Compound 13]
IC50 [7]: 56.7 µM | Fold reduction in potency compared with 2 [8]: 2.6 fold

CC(=O)C=C(O)C(=O)O [Compound 14]
IC50 [7]: 307 µM | Fold reduction in potency compared with 2 [8]: 14 fold

O=C(CC(O)C(=O)O)c1ccccc1 (centres unmarked) [Compound 16]
IC50 [7]: > 500 µM

NC(CC(=O)c1ccccc1)C(=O)O (centres unmarked) [Compound 17]
IC50 [7]: > 500 µM

O=C(O)/C(O)=C/S(=O)(=O)c1ccccc1 [Compound 19]
IC50 [7]: > 500 µM

O=C(O)/C(O)=C/C(=O)C1(Cc2ccc(Cl)cc2)CCCN(Cc2ccccc2)C1 [Compound 20, L-735,882]
IC50 [7]: 1.1 µM | Inhibition of viral replication in cell culture (qualitative) [3]: dose-dependent inhibition of viral replication in cell culture

O=C(O)/C(O)=C/C(=O)C1(Cc2ccc(Cl)cc2)CCCN(S(=O)(=O)Cc2ccccc2)C1 (centres unmarked) [Compound 21]
IC50 [7]: 0.19 µM | Inhibition of viral replication in cell culture (qualitative) [3]: dose-dependent inhibition of viral replication in cell culture

O=C(O)/C(O)=C/C(=O)C1(Cc2ccc(Cl)cc2)CCN(CC2CCCCC2)CC1 [Compound 22]
Inhibition of viral replication in cell culture (qualitative) [3]: dose-dependent inhibition of viral replication in cell culture

COC(=O)c1nc(-c2cn(C)cn2)[nH]c(=O)c1O [Compound 23]
IC50 [5]: > 50 µM | CC50 at 72 h [6]: 53.2 ± 0.9 µM

O=C(O)c1nc(-c2cnccn2)nc(O)c1O [Compound 24]
IC50 [9]: > 50 µM | CC50 [10]: > 60 µM

COC(=O)c1nc(-c2cnccn2)[nH]c(=O)c1O [Compound 25]
IC50 [5]: > 50 µM | CC50 at 72 h [6]: > 60 µM

C[C@@H](NC(=O)c1nc(-c2cnccn2)[nH]c(=O)c1O)c1ccccc1 [Compound 26]
IC50 [9]: 12.68 ± 0.08 µM | CC50 [10]: > 60 µM
